Results: paper PMC12736120, “First-in-Human Phase I Clinical Trial of SLC-391, a Novel and Selective AXL Inhibitor, in Patients with Advanced Solid Tumours” (Pharmaceuticals, 2025)
Where two headings read alike, the source gives them in different places.

Assay: Plasma pharmacokinetics, QD and BID cohorts (non-compartmental)
Type: in vivo, human
Conditions: for Cmax / Tmax / AUC / AUC(0-t) / concentration at 21 days: human, plasma, oral; for concentration at 21 days: read-out: Cmin, range across cohorts
Protocol: PK parameters were calculated by standard non-compartmental methods for SLC-391. Due to the long half-life of SLC-391 compared to the dosing interval, it was not possible to calculate a number of PK parameters, including plasma half-life and rate of elimination. Accumulation was assessed from the mean accumulation ratio factor (AR factor) calculated as the repeated dose (C1D21) mean value/single dose (C1D1) mean value for the PK parameters Cmax, AUC0–12, and AUC0–last for each dose group.
During QD dosing, blood samples for determination of SLC-391 plasma concentrations were collected predose and at 0.5, 1, 2, 3, 4, 6, 8, and 24 h after SLC-391 administration on cycle 1 day 1 (C1D1) and cycle 1 day 21 (C1D21). During BID dosing, blood samples were collected predose and at 1, 2, 3, 4, 6, 8, and 12 h after the first daily dose (before the second daily dose). Where possible, further samples were then collected at 13, 14, 22, and 24 h after the initial dose (predose C1D2). Blood samples were also collected on C1D21 (steady state) predose and at 1, 2, 3, 4, 6, 8, and 12 h after the first daily dose (before the second daily dose). Where possible, further samples were then collected at 13, 14, 22, and 24 h after the initial C1D21 dose (predose C2D1). An additional blood sample was also taken, where possible, at the end of treatment (EOT) visit.
After collection, blood samples were centrifuged, and plasma was separated and stored at −80 °C. Plasma concentrations of SLC-391 were measured by a validated analytical method involving liquid–liquid extraction followed by high-performance liquid chromatography (HPLC)–mass/mass spectroscopy assay using a Water Quattro Premier tandem quadrupole mass spectroscopy with Waters MassLynx data acquisition and processing software. Plasma analysis was carried out by Microconstants (San Diego, CA, USA) in compliance with the US FDA GLP regulations. The calibration range of the assay was from 0.100 to 100 ng/mL. Quality control samples prepared at 4 different analyte concentrations were analysed with each batch of samples against a separately prepared calibration standard. PK parameters were collected following single (day 1) and repeat dose (day 21) administration. PK parameters were summarised with appropriate descriptive statistics where possible (e.g., mean, geometric mean, median, maximum, minimum, and coefficient of variation). Descriptive PK parameters were determined by standard non-compartmental methods based on the concentration–time data of each subject. The nominal time was used for descriptive statistics calculations, and the actual sample collection times were used in PK analyses. PK analyses were performed using validated Phoenix WinNonlin Professional 8.3 (Certara, L.P., St. Louis, MO, USA).

Nc1ncc(-c2cnn(C3CCNCC3)c2)cc1-c1nnc(CC2CC2)o1 [SLC-391, 3-(5-[cyclopropylmethyl]-1,3,4-oxadiazol-2-yl)-5-(1-[piperidin-4-yl]-1H-pyrazol-4-yl)-pyridin-2-amine]
Cmax (110 mg, 110 mg BID, C1D1, median, n=3, plasma, read-out: Cmax): 0.0931 µg/mL | Tmax (110 mg, 110 mg BID, C1D1, median, n=3, plasma, read-out: Tmax): 3 h | AUC (110 mg, 110 mg BID, C1D21, mean, n=3, plasma, read-out: AUC0–12): 2.26 µg·h/mL | AUC(0-t) (110 mg, 110 mg BID, C1D21, mean, n=3, plasma, read-out: AUC0–last): 4.28 µg·h/mL | Cmax (110 mg, 110 mg BID, C1D21, mean, n=3, plasma, read-out: Cmax): 0.249 µg/mL | Tmax (110 mg, 110 mg BID, C1D21, mean, n=3, plasma, read-out: Tmax): 2.4 h | AUC (110 mg, 110 mg BID, C1D21, median, n=3, plasma, read-out: AUC0–12): 1.39 µg·h/mL | AUC(0-t) (110 mg, 110 mg BID, C1D21, median, n=3, plasma, read-out: AUC0–last): 2.56 µg·h/mL | Cmax (110 mg, 110 mg BID, C1D21, median, n=3, plasma, read-out: Cmax): 0.187 µg/mL | Tmax (110 mg, 110 mg BID, C1D21, median, n=3, plasma, read-out: Tmax): 2.1 h | AUC (125 mg, QD, C1D1, read-out: AUC0–12, Mean): 0.672 µg·h/mL | AUC (125 mg, QD, C1D1, read-out: AUC0–12, Median): 0.877 µg·h/mL | AUC(0-t) (125 mg, QD, C1D1, read-out: AUC0–last, Mean): 1.04 µg·h/mL | AUC(0-t) (125 mg, QD, C1D1, read-out: AUC0–last, Median): 1.28 µg·h/mL | Cmax (125 mg, QD, C1D1, read-out: Cmax, Mean): 0.103 µg/mL | Cmax (125 mg, QD, C1D1, read-out: Cmax, Median): 0.123 µg/mL | Tmax (125 mg, QD, C1D1, read-out: Tmax, Mean): 2 h | Tmax (125 mg, QD, C1D1, read-out: Tmax, Median): 2.1 h | AUC (125 mg, QD, C1D21, read-out: AUC0–12, Mean): 1.12 µg·h/mL | AUC (125 mg, QD, C1D21, read-out: AUC0–12, Median): 1.38 µg·h/mL | AUC(0-t) (125 mg, QD, C1D21, read-out: AUC0–last, Mean): 1.84 µg·h/mL | AUC(0-t) (125 mg, QD, C1D21, read-out: AUC0–last, Median): 2.34 µg·h/mL | Cmax (125 mg, QD, C1D21, read-out: Cmax, Mean): 0.147 µg/mL | Cmax (125 mg, QD, C1D21, read-out: Cmax, Median): 0.188 µg/mL | Tmax (125 mg, QD, C1D21, read-out: Tmax, Mean): 2 h | Tmax (125 mg, QD, C1D21, read-out: Tmax, Median): 2 h | AUC (150 mg, 150 mg BID, C1D1, mean, n=5, plasma, read-out: AUC0–12): 1.05 µg·h/mL | AUC(0-t) (150 mg, 150 mg BID, C1D1, mean, n=6, plasma, read-out: AUC0–last): 2.33 µg·h/mL | Cmax (150 mg, 150 mg BID, C1D1, mean, n=6, plasma, read-out: Cmax): 0.236 µg/mL | Tmax (150 mg, 150 mg BID, C1D1, mean, n=6, plasma, read-out: Tmax): 9 h | AUC (150 mg, 150 mg BID, C1D1, median, n=5, plasma, read-out: AUC0–12): 1.07 µg·h/mL | AUC(0-t) (150 mg, 150 mg BID, C1D1, median, n=6, plasma, read-out: AUC0–last): 1.69 µg·h/mL | Cmax (150 mg, 150 mg BID, C1D1, median, n=6, plasma, read-out: Cmax): 0.208 µg/mL | Tmax (150 mg, 150 mg BID, C1D1, median, n=6, plasma, read-out: Tmax): 2 h | AUC (150 mg, 150 mg BID, C1D21, mean, n=6, plasma, read-out: AUC0–12): 4.62 µg·h/mL | AUC(0-t) (150 mg, 150 mg BID, C1D21, mean, n=6, plasma, read-out: AUC0–last): 9.08 µg·h/mL | Cmax (150 mg, 150 mg BID, C1D21, mean, n=6, plasma, read-out: Cmax): 0.527 µg/mL | Tmax (150 mg, 150 mg BID, C1D21, mean, n=6, plasma, read-out: Tmax): 3.5 h | AUC (150 mg, 150 mg BID, C1D21, median, n=6, plasma, read-out: AUC0–12): 4.87 µg·h/mL | AUC(0-t) (150 mg, 150 mg BID, C1D21, median, n=6, plasma, read-out: AUC0–last): 10 µg·h/mL | Cmax (150 mg, 150 mg BID, C1D21, median, n=6, plasma, read-out: Cmax): 0.549 µg/mL | Tmax (150 mg, 150 mg BID, C1D21, median, n=6, plasma, read-out: Tmax): 2.9 h | AUC (150 mg, QD, C1D1, read-out: AUC0–12, Mean): 0.946 µg·h/mL | AUC (150 mg, QD, C1D1, read-out: AUC0–12, Median): 0.892 µg·h/mL | AUC(0-t) (150 mg, QD, C1D1, read-out: AUC0–last, Mean): 1.61 µg·h/mL | AUC(0-t) (150 mg, QD, C1D1, read-out: AUC0–last, Median): 1.46 µg·h/mL | Cmax (150 mg, QD, C1D1, read-out: Cmax, Mean): 0.156 µg/mL | Cmax (150 mg, QD, C1D1, read-out: Cmax, Median): 0.126 µg/mL | Tmax (150 mg, QD, C1D1, read-out: Tmax, Mean): 5.5 h | Tmax (150 mg, QD, C1D1, read-out: Tmax, Median): 2.1 h | AUC (150 mg, QD, C1D21, read-out: AUC0–12, Mean): 2.14 µg·h/mL | AUC (150 mg, QD, C1D21, read-out: AUC0–12, Median): 2.08 µg·h/mL | AUC(0-t) (150 mg, QD, C1D21, read-out: AUC0–last, Mean): 3.62 µg·h/mL | AUC(0-t) (150 mg, QD, C1D21, read-out: AUC0–last, Median): 3.51 µg·h/mL | Cmax (150 mg, QD, C1D21, read-out: Cmax, Mean): 0.254 µg/mL | Cmax (150 mg, QD, C1D21, read-out: Cmax, Median): 0.269 µg/mL | Tmax (150 mg, QD, C1D21, read-out: Tmax, Mean): 2.6 h | Tmax (150 mg, QD, C1D21, read-out: Tmax, Median): 2 h | AUC (175 mg, QD, C1D1, n 1, read-out: AUC0–12, Mean): 1.5 µg·h/mL | AUC (175 mg, QD, C1D1, n 1, read-out: AUC0–12, Median): 1.5 µg·h/mL | AUC(0-t) (175 mg, QD, C1D1, read-out: AUC0–last, Mean): 1.58 µg·h/mL | AUC(0-t) (175 mg, QD, C1D1, read-out: AUC0–last, Median): 1.58 µg·h/mL | Cmax (175 mg, QD, C1D1, read-out: Cmax, Mean): 0.357 µg/mL | Cmax (175 mg, QD, C1D1, read-out: Cmax, Median): 0.357 µg/mL | Tmax (175 mg, QD, C1D1, read-out: Tmax, Mean): 2 h | Tmax (175 mg, QD, C1D1, read-out: Tmax, Median): 2 h | AUC (200 mg, 200 mg BID, C1D1, mean, n=3, plasma, read-out: AUC0–12): 0.985 µg·h/mL | AUC(0-t) (200 mg, 200 mg BID, C1D1, mean, n=3, plasma, read-out: AUC0–last): 2.05 µg·h/mL | Cmax (200 mg, 200 mg BID, C1D1, mean, n=3, plasma, read-out: Cmax): 0.174 µg/mL | Tmax (200 mg, 200 mg BID, C1D1, mean, n=3, plasma, read-out: Tmax): 9.7 h | AUC (200 mg, 200 mg BID, C1D1, median, n=3, plasma, read-out: AUC0–12): 1.13 µg·h/mL | AUC(0-t) (200 mg, 200 mg BID, C1D1, median, n=3, plasma, read-out: AUC0–last): 2.17 µg·h/mL | Cmax (200 mg, 200 mg BID, C1D1, median, n=3, plasma, read-out: Cmax): 0.178 µg/mL | Tmax (200 mg, 200 mg BID, C1D1, median, n=3, plasma, read-out: Tmax): 3.1 h | AUC (200 mg, 200 mg BID, C1D21, mean, n=2, plasma, read-out: AUC0–12): 8.55 µg·h/mL | AUC(0-t) (200 mg, 200 mg BID, C1D21, mean, n=2, plasma, read-out: AUC0–last): 16.4 µg·h/mL | Cmax (200 mg, 200 mg BID, C1D21, mean, n=2, plasma, read-out: Cmax): 0.875 µg/mL | Tmax (200 mg, 200 mg BID, C1D21, mean, n=2, plasma, read-out: Tmax): 2.4 h | AUC (200 mg, 200 mg BID, C1D21, median, n=2, plasma, read-out: AUC0–12): 8.55 µg·h/mL | AUC(0-t) (200 mg, 200 mg BID, C1D21, median, n=2, plasma, read-out: AUC0–last): 16.4 µg·h/mL | Cmax (200 mg, 200 mg BID, C1D21, median, n=2, plasma, read-out: Cmax): 0.875 µg/mL | Tmax (200 mg, 200 mg BID, C1D21, median, n=2, plasma, read-out: Tmax): 2.4 h | AUC(0-t) (BID, 75 mg to 200 mg, C1D1, read-out: mean AUC0–last, range across cohorts): 1.17 to 2.33 µg·h/mL | Cmax (BID, 75 mg to 200 mg, C1D1, read-out: mean Cmax, range across cohorts): 0.0952 to 0.236 µg/mL | Tmax (BID, 75 mg to 200 mg, C1D1, read-out: median Tmax, range across cohorts): 2 to 3.1 h | AUC(0-t) (BID, 75 mg to 200 mg, C1D21, read-out: mean AUC0–last, range across cohorts): 4.28 to 16.4 µg·h/mL | Cmax (BID, 75 mg to 200 mg, C1D21, read-out: mean Cmax, range across cohorts): 0.249 to 0.875 µg/mL | Tmax (BID, 75 mg to 200 mg, C1D21, read-out: median Tmax, range across cohorts): 1.9 to 2.9 h | AUC(0-t) (QD, 25 mg to 150 mg, C1D21, read-out: mean AUC0–last, range across cohorts): 0.461 to 3.62 µg·h/mL | Cmax (QD, 25 mg to 150 mg, C1D21, read-out: mean Cmax, range across cohorts): 0.0419 to 0.436 µg/mL | Tmax (QD, 25 mg to 150 mg, C1D21, read-out: median Tmax, range across cohorts): 1.5 to 2.1 h | AUC(0-t) (QD, 25 mg to 175 mg, C1D1, read-out: mean AUC0–last, range across cohorts): 0.27 to 1.58 µg·h/mL | Cmax (QD, 25 mg to 175 mg, C1D1, read-out: mean Cmax, range across cohorts): 0.0325 to 0.357 µg/mL | Tmax (QD, 25 mg to 175 mg, C1D1, read-out: median Tmax, range across cohorts): 0.9 to 2.1 h | concentration at 21 days (after 21 days of BID dosing): 0.146 to 0.472 µg/mL | concentration at 21 days (after 21 days of QD dosing): 0.0103 to 0.152 µg/mL | Tmax (overall, as stated in the abstract, read-out: median Tmax): 2 h | steady state of plasma concentrations (multiple doses, QD and BID): appeared to reach a steady state by day 21
